Patent publication US10392385B2, “N-((1-phenyl-9H-pyrido[3,4-b]indol-3-yl)methyl)cinnamamides as potential anticancer agents and preparation thereof” (Council of Scientific & Industrial Research, priority 2016, dated 2019)

Experiments:
A549 (lung cancer) = assay: MTT cytotoxicity assay, A549; format: cell-based; conditions: Homo sapiens, 48 h of drug treatment (footnote), average of three experiments
Excerpt: (§1) The N-((1-phenyl-9H-pyrido[3,4-b]indol-3-yl)methyl)cinnamamides (1a-h, 2a-h and 3a-h) have been tested against five human cancer cell lines such as A549 (lung cancer), MCF-7 (breast cancer), B16 (melanoma), HeLa (cervical cancer) and NIH3T3 (mouse embryonic fibroblast cancer). All the cancer cell lines (HeLa, A549, MCF-7 and B16) were procured from National Centre for Cell Sciences (NCCS, Pune, India) and NIH 3T3 cell line was obtained from American Type Culture Collection (Rockville, Md., USA). Stock cells were cultured in DMEM supplemented with 10% Fetal Bovine Serum (FBS), in an humidified atmosphere of 5% CO2 at 37° C. until they are 80% confluent. To study the cytotoxicity of the compounds, after 80% confluence, cells were trypsinized with 0.1% trypsin-EDTA and harvested by centrifugation at 500×g. Serial dilutions of cells were made from 1×10^6 to 1×10^3 cells per mL The cells were seeded in triplicate in a 96 well plate. […]. […] The cell viability was determined by measuring the ability of cells to transform MTT to a purple coloured formazan dye. The absorbance of samples at 570 nm was measured using a UV-Visible spectrophotometer. Percentage of viable cells was calculated by using the formula given below.
Where the OD570 (sample) corresponds to absorbance obtained from the wells treated with compound and OD570 (control) represents the absorbance from the wells in which no compound was added.

[1] = system: NIH3T3 (mouse embryonic fibroblast cell line); assay: MTT cytotoxicity assay, NIH3T3; format: cell-based; conditions: 48 h of drug treatment (footnote), average of three experiments
Excerpt: as §1
(§2) Where the OD570 (sample) corresponds to absorbance obtained from the wells treated with compound and OD570 (control) represents the absorbance from the wells in which no compound was added. For these compounds results are expressed as half maximal inhibitory concentration (IC50) values and the anticancer activity data of 1a-h, 2a-h and 3a-h are shown in Table 2.

MCF-7 (breast cancer) = assay: MTT cytotoxicity assay, MCF-7; format: cell-based; conditions: Homo sapiens, MCF7, average of three experiments
Excerpt: as §1, §2

HeLa (cervical cancer) = assay: MTT cytotoxicity assay, HeLa; format: cell-based; conditions: Homo sapiens, of drug treatment (footnote), average of three experiments
Excerpt: as §1, §2

B16 (melanoma) = assay: MTT cytotoxicity assay, B16; format: cell-based; conditions: 48 h of drug treatment (footnote), average of three experiments
Excerpt: as §1, §2

| Compound | melting point | IC50 (A549 (lung cancer)) | IC50 [1] | IC50 (MCF-7 (breast cancer)) | IC50 (HeLa (cervical cancer)) | IC50 (B16 (melanoma)) |
| --- | --- | --- | --- | --- | --- | --- |
| COc1cc(/C=C/C(=O)NCc2cc3c([nH]c4ccccc43)c(-c3cc(OC)c(OC)c(OC)c3)n2)cc(OC)c1OC [Compound 2a, (E)-3-(3,4,5-trimethoxyphenyl)-N-((1-(3,4,5-trimethoxyphenyl)-9H-pyrido[3,4-b]indol-3-yl)methyl)acrylamide] |  | 21.3 ± 0.9 nM | 38.9 ± 2.5 nM | 16.5 ± 1.1 nM | 23.5 ± 0.3 nM | 17.2 ± 0.4 nM |
| COc1cc(/C=C/C(=O)NCc2cc3c([nH]c4ccccc43)c(-c3cccc(F)c3)n2)ccc1O [Compound 1g, (E)-N-((1-(3-fluorophenyl)-9H-pyrido[3,4-b]indol-3-yl)methyl)-3-(4-hydroxy-3-methoxyphenyl)acrylamide] | 205 to 210 °C | 22.4 ± 1.1 nM | 36.9 ± 1.9 nM | 17.9 ± 0.7 nM | 23.9 ± 0.4 nM | 19.4 ± 1.1 nM |
| COc1cc(/C=C/C(=O)NCc2cc3c([nH]c4ccccc43)c(-c3cccc(F)c3)n2)cc(OC)c1OC [Compound 1a, (E)-N-((1-(3-fluorophenyl)-9H-pyrido[3,4-b]indol-3-yl)methyl)-3-(3,4,5-trimethoxyphenyl)acrylamide] | 148 to 150 °C | 17.9 ± 0.6 nM | 36 ± 1.3 nM | 16.2 ± 1.5 nM | 23 ± 0.7 nM | 19.8 ± 0.6 nM |
| O=C(/C=C/c1cccc(O)c1)NCc1cc2c([nH]c3ccccc32)c(-c2cccc(F)c2)n1 [Compound 1h, (E)-N-((1-(3-fluorophenyl)-9H-pyrido[3,4-b]indol-3-yl)methyl)-3-(3-hydroxyphenyl)acrylamide] | 142 to 148 °C | 23.4 ± 0.8 nM | 35.7 ± 2.2 nM | 19.2 ± 0.6 nM | 27 ± 0.5 nM | 24.9 ± 0.5 nM |
| O=C(/C=C/c1ccc(Cl)cc1)NCc1cc2c([nH]c3ccccc32)c(-c2cccc(F)c2)n1 [Compound 1f, (E)-3-(4-chlorophenyl)-N-((1-(3-fluorophenyl)-9H-pyrido[3,4-b]indol-3-yl)methyl)acrylamide] | 248 to 250 °C | 19.6 ± 1.6 nM | 43.6 ± 1.1 nM | 18.3 ± 0.8 nM | 19.2 ± 0.6 nM | 18.2 ± 1.3 nM |
| COc1ccc(-c2nc(CNC(=O)/C=C/c3ccc(Cl)cc3)cc3c2[nH]c2ccccc23)cc1 [Compound 3f, (E)-3-(4-chlorophenyl)-N-((1-(4-methoxyphenyl)-9H-pyrido[3,4-b]indol-3-yl)methyl)acrylamide] |  | 18.9 ± 1.1 nM | 38.3 ± 1.3 nM | 14.1 nM | 21.6 ± 0.6 nM | 16.6 ± 0.5 nM |

Further lines, with some results ahead:

| melting point | Compound | IC50 (A549 (lung cancer)) | IC50 [1] | IC50 (MCF-7 (breast cancer)) | IC50 (HeLa (cervical cancer)) | IC50 (B16 (melanoma)) |
| --- | --- | --- | --- | --- | --- | --- |
| 148 to 150 °C | COc1ccc(OC)c(/C=C/C(=O)NCc2cc3c([nH]c4ccccc43)c(-c3cc(OC)c(OC)c(OC)c3)n2)c1 [Compound 2e, (E)-3-(2,5-dimethoxyphenyl)-N-((1-(3,4,5-trimethoxyphenyl)-9H-pyrido[3,4-b]indol-3-yl)methyl)acrylamide] | 18.8 ± 1.4 nM | 39 ± 1.9 nM | 17.2 ± 0.6 nM | 25.09 ± 0.2 nM | 19.2 ± 1.4 nM |
| 230 to 232 °C | COc1ccc(-c2nc(CNC(=O)/C=C/c3cc(F)cc(F)c3)cc3c2[nH]c2ccccc23)cc1 [Compound 3d, (E)-3-(3,5-difluorophenyl)-N-((1-(4-methoxyphenyl)-9H-pyrido[3,4-b]indol-3-yl)methyl)acrylamide] | 20 ± 1.1 nM | 37.5 ± 1.3 nM | 17.2 ± 1.2 nM | 24.6 ± 0.4 nM | 23.87 ± 0.2 nM |
| 175 to 178 °C | COc1cc(-c2nc(CNC(=O)/C=C/c3cccc(O)c3)cc3c2[nH]c2ccccc23)cc(OC)c1OC [Compound 2h, (E)-3-(3-hydroxyphenyl)-N-((1-(3,4,5-trimethoxyphenyl)-9H-pyrido[3,4-b]indol-3-yl)methyl)acrylamide] | 19.5 ± 1.5 nM | 38.2 ± 1.5 nM | 16.8 ± 0.5 nM | 23.65 ± 0.1 nM | 21.8 ± 0.8 nM |
| 214 to 218 °C | COc1cc(-c2nc(CNC(=O)/C=C/c3ccc(F)cc3)cc3c2[nH]c2ccccc23)cc(OC)c1OC [Compound 2c, (E)-3-(4-fluorophenyl)-N-((1-(3,4,5-trimethoxyphenyl)-9H-pyrido[3,4-b]indol-3-yl)methyl)acrylamide] | 18.7 ± 0.7 nM | 43 ± 1.1 nM | 16.4 ± 0.8 nM | 20 ± 0.5 nM | 17.2 ± 0.3 nM |
